Assays:
Experiment in all cases: cells
Parameters in all cases: species or system panel of 482 human cancer cell lines; ATPLite luminescence growth inhibition after treatment, nine-point dilution curve, 482 cancer cell lines, 384-well
Details in all cases: 72 h, recommended growth medium
EVSAT_BREAST = test system: EVSAT_BREAST
Method in brief: (§1)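 Growth inhibition was measured across a panel of 482 cancer cell lines. Cells were plated at 500 cells per well in recommended growth media in black, tissue culture treated 384-well plates, centrifuged to equilibrate, and incubated 24 h before dosing. Compounds were tested as nine-point dilution curves for 72 h, with viability read by ATPLite luminescence relative to DMSO-treated controls.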

HCC1195_LUNG = test system: HCC1195_LUNG
Method in brief: as §1

HCC2218_BREAST = test system: HCC2218_BREAST
Method in brief: as §1

HCT8_LARGE_INTESTINE = test system: HCT8_LARGE_INTESTINE
Method in brief: as §1

IM95_STOMACH = test system: IM95_STOMACH
Method in brief: as §1

[1] = test system: JVM13_HAEMATOPOIETIC_AND_LYMPHOID_TISSUE
Method in brief: as §1

MKN45_STOMACH = test system: MKN45_STOMACH
Method in brief: as §1

NCIH1944_LUNG = test system: NCIH1944_LUNG
Method in brief: as §1

NCIH2126_LUNG = test system: NCIH2126_LUNG
Method in brief: as §1

NCIH2170_LUNG = test system: NCIH2170_LUNG
Method in brief: as §1

NCIH2171_LUNG = test system: NCIH2171_LUNG
Method in brief: as §1

NCIH661_LUNG = test system: NCIH661_LUNG
Method in brief: as §1

OAW28_OVARY = test system: OAW28_OVARY
Method in brief: as §1

SKBR3_BREAST = test system: SKBR3_BREAST
Method in brief: as §1

[2] = test system: SUDHL5_HAEMATOPOIETIC_AND_LYMPHOID_TISSUE
Method in brief: as §1

TGBC11TKB_STOMACH = test system: TGBC11TKB_STOMACH
Method in brief: as §1

[3] = test system: U2932_HAEMATOPOIETIC_AND_LYMPHOID_TISSUE
Method in brief: as §1

## CCN(C/C=C/C#CC(C)(C)C)Cc1cccc(OCc2cc(-c3ccsc3)cs2)c1 [NB-598]
EVSAT_BREAST
  GI50: 32.4 µM
HCC1195_LUNG
  GI50: 2740 µM
HCC2218_BREAST
  GI50: 7.17 µM
HCT8_LARGE_INTESTINE
  GI50: 10.7 µM
IM95_STOMACH
  GI50: 0.0118 µM
[1]
  GI50: 9.61 µM
MKN45_STOMACH
  GI50: 0.605 µM
NCIH1944_LUNG
  GI50: 0.0271 µM
NCIH2126_LUNG
  GI50: 0.144 µM
NCIH2170_LUNG
  GI50: 0.608 µM
NCIH2171_LUNG
  GI50: 2.27 µM
NCIH661_LUNG
  GI50: 28.9 µM
OAW28_OVARY
  GI50: 65.4 µM
SKBR3_BREAST
  GI50: 7.19 µM
[2]
  GI50: 0.0255 µM
TGBC11TKB_STOMACH
  GI50: 2.98 µM
[3]
  GI50: 1.29 µM

— paper PMC6327044, “A chemical biology screen identifies a vulnerability of neuroendocrine cancer cells to SQLE inhibition” (Nature Communications, 2019)
